pEC50: −log10 of the molar value. Counter-ions that a name gives are not always drawn. Like-named read-outs stand apart in the source and are kept apart here.
Experiments:
peripheral T-cell counts = assay: Lymphopenia in rats, 3-5 day multiple dose regimen; format: in vivo, rat; details: female rats, oral, 24 h after final dose of a 3-5 day multiple dose regimen
Protocol: In rats: Female rats (Simonsen Laboratories, Gilroy Calif.) were housed in an ALAAC accredited facility and the research was approved by the facilities Institutional Animal Care and Use Committee (IACUC). The animals were acclimated to the laboratory for at least 5 days prior to initiation of experiments. Rats (n=3/compound/time-point) were dosed by oral gavage with 1 mg/kg compound formulated in a vehicle consisting of 5% DMS0/5% Tween 20 and 90% 0.1N HCL. Control rats were dosed PO with the vehicle. Whole blood was collected from isoflurane anesthetized rats via the retro-orbital sinus and terminal samples were collected by cardiac puncture into EDTA. Whole blood was incubated with mouse anti-rat CD32 (BD #550271), PE-mouse anti-rat CD45R/B220 (BD #554881), PECy5-mouse anti-rat CD4 (BD #554839), and APC-mouse anti-rat CD8a (eBioscience #17-0084) for 30 minutes on ice. Red blood cells were lysed using BD Pharm Lyse Lysing buffer (#555899) and white blood cells were analyzed with a BD FACSArray. Lymphopenia was expressed as the % of white blood cells that were CD4 or CD8 positive T cells. The overall lymphopenia response over 24 h was estimated by calculating the area under the effect curve (AUEC) using the linear trapezoidal rule.
The compounds listed in Table 6 were formulated as suspensions in a vehicle consisting of 0.5% carboxymethyl cellulose (Acros Organics) in purified water (pH adjusted to ˜2.2 with hydrochloric acid). The same formulation was used in the rat lymphopenia and toxicology studies described below. The concentration of each compound in suspension was verified to be within ±10% of the target concentration by HPLC-UV.
Prior to the conduct of toxicology studies, the effect of three to five daily doses of each compound on peripheral T-cell counts of female rats was determined (see lymphopenia measurements in rats above). In these lymphopenia studies, blood samples were collected onto EDTA at intervals after the final study dose. The collection times were not identical for each study, however, all studies included a sample collected 24 hours after the final dose. The lymphopenia data was used as a biomarker to select equally pharmacologically active doses for the subsequent toxicology study. […] The high dose in the toxicology study represented a ≧20-fold increment over the low dose.
The dose producing a 10% increase in lung to body weight ratio was interpolated from a plot of dose versus lung to body weight. The lymphopenia response was measured 24 hours following the final dose of a 3-5 day multiple dose regimen.

[1] = tested on: CD4 or CD8 positive T cells; assay: Lymphopenia in mice; format: in vivo; details: female C57BL6 mice, 1 mg/kg oral gavage, area under the effect curve over 24 h
Protocol: In mice: Female C57BL6 mice (Simonsen Laboratories, Gilroy Calif.) were housed in an ALAAC accredited facility and the research was approved by the facilities Institutional Animal Care and Use Committee (IACUC). The animals were acclimated to the laboratory for at least 5 days prior to initiation of experiments. Mice (n=3/compound/time-point) were dosed by oral gavage with 1 mg/kg compound formulated in a vehicle consisting of 5% DMSO/5% Tween 20 and 90% 0.1N HCl. Control mice were dosed PO with the vehicle. Terminal whole blood samples were collected from isoflurane anesthetized mice by cardiac puncture into EDTA. Whole blood was incubated with rat anti-mouse CD16/CD32 (Mouse BD Fc Block, #553141), PE-Rat anti-mouse CD45R/B220 (BD #553089), APC-Cy7-Rat anti-mouse CD8a (BD #557654), and Alexa Fluor647-Rat anti-mouse CD4 (BD #557681) for 30 min on ice. Red blood cells were lysed using BD Pharm Lyse Lysing buffer (#555899) and white blood cells were analyzed by FACS. Lymphopenia was expressed as the % of white blood cells that were CD4 or CD8 positive T cells. The overall lymphopenia response over 24 h was estimated by calculating the area under the effect curve (AUEC) using the linear trapezoidal rule.

S1P5 = target: T1, S1P5 (Homo sapiens, UniProt Q9H228); assay: Specificity over other S1P receptors: S1P5-bla TANGO U2OS assay; format: cell-based; details: read-out: S1P5 agonist value (EC50)
T1 construct: Tango fusion (own knowledge: protease cleavage site plus GAL4-VP16 transcription factor at the receptor's C-terminus); host or cells: U2OS (Tango -bla)
T1 sequence (Q9H228 whole entry, the tested form may be a part): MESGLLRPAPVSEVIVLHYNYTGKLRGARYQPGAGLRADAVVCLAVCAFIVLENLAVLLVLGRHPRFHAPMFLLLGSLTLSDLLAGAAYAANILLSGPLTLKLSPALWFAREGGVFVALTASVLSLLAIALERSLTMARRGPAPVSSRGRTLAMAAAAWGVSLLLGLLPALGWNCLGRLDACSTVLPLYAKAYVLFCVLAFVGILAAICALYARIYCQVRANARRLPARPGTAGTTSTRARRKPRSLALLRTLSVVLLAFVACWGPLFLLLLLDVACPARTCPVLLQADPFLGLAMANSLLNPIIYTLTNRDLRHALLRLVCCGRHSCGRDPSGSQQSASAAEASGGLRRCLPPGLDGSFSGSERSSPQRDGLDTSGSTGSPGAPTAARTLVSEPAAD
Protocol: Cells were seeded into 384-well black wall/clear bottom plates at 10^4 cells/well/19.5 μl assay media (DMEM-phenol free, 0.5% charcoal/dextran stripped serum, 2 mM glutamine, 0.1 mM NEAA, 1 mM Na-Pyruvate, 25 mM Hepes) and incubated for 18 hrs at 37° C. in 5% CO2. Dose response curves (10-point) were generated in 10 mM Hepes, 0.1% Pluronic F127, in the presence of Forskolin. Cells were treated with 0.5 μl compound in the presence of 2 μM Forskolin for 4 hrs at 37° C. The FRET-based β-lactamase fluorescent substrate (LiveBLAzer™-FRET B/G Loading Kit CC4-AM; Invitrogen) was prepared according to manufacturer's directions, and incubated with cells for 2 hrs at room temperature. Plates were read at Ex:410/Em:458 and Ex:410/Em:522, and the response ratio determined. Data was analyzed by non-linear regression to determine the EC50 for inhibition of Forskolin induced cAMP.
To assess compound specificity on other S1P receptors the following cell lines were used: S1P2 CRE-bla CHOK1, S1P3-Gα15 NFAT-bla HEK293T (Invitrogen), S1P4-bla TANGO U2OS (Invitrogen), S1P5-bla TANGO U2OS (Invitrogen). The same assay set up for S1P1 was used but without Forskolin. S1P4 and S1P5 assays were performed in FreeStyle Expression medium (Invitrogen). S1P5 cells were incubated for 48 hrs in prior to treatment with compound.

S1P1/EDG1 = S1P1/EDG1 (Homo sapiens, UniProt P21453); assay: S1P1 CRE-bla CHOK1 reporter assay, inhibition of Forskolin induced cAMP; format: cell-based
Chain of S1P1/EDG1 (P21453 whole entry): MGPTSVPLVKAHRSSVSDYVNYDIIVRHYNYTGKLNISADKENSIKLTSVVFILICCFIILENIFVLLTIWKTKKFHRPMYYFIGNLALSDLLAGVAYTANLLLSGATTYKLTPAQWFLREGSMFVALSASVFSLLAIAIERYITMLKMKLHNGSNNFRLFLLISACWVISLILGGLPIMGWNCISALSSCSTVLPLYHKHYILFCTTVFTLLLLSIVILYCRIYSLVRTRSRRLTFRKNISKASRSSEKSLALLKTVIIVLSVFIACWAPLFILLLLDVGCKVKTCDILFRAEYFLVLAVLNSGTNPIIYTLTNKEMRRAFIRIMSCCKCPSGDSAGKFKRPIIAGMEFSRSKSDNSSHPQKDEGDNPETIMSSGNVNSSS
Procedure, shortened: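 Read-out is a FRET β-lactamase substrate (2 h, room temperature) after 4 h, 37 °C compound treatment under 2 μM Forskolin in stable S1P1-transfected CRE-bla CHO-K1 cells. Ten-point curves; non-linear regression gives EC50 for inhibition of Forskolin-stimulated cAMP.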

[2] = S1P1 CRE-bla CHOK1, with Forskolin, read-out: S1P1 agonist value (EC50)
[3] = agonist activity range, S1P1 CRE-bla CHOK1, 2 μM Forskolin, read-out: S1P1 ACTIVITY

Row | SMILES | Dose Producing 50% lymphopenia (peripheral T-cell counts) [mg/kg] | Mouse Lymphopenia (AUEC) [1] | pEC50 (S1P5) | pEC50 (S1P1/EDG1; [2]) | pEC50 (S1P1/EDG1; [3])
1 | CC(C)Oc1ccc(-c2nc(-c3cccc4c3CC[C@H]4NCCO)no2)cc1C#N [Compound 85, (R)-5-(3-(1-(2-hydroxyethylamino)-2,3-dihydro-1H-inden-4-yl)-1,2,4-oxadiazol-5-yl)-2-isopropoxybenzonitrile] | 0.15 | 1425 | 7.82 | – | –
2 | CC(C)Oc1ccc(-c2nc(-c3cccc4c3CC[C@H]4NCC(=O)N(C)C)no2)cc1C#N [Compound 90, (R)-2-(4-(5-(3-cyano-4-isopropoxyphenyl)-1,2,4-oxadiazol-3-yl)-2,3-dihydro-1H-inden-1-ylamino)-N,N-dimethylacetamide hydrochloride] | 0.40 | 1486 | 7.89 | 9.89 | 9.30 to 10.30
3 | CC(C)Oc1ccc(-c2nc(-c3cccc4c3CC[C@H]4N)no2)cc1C#N [Compound 49, (R)-5-(3-(1-amino-2,3-dihydro-1H-inden-4-yl)-1,2,4-oxadiazol-5-yl)-2-isopropoxy-benzonitrile hydrochloride] | 0.10 | 1762 | 7.70 | 9.77 | 9.30 to 10.30
4 | CC(C)Oc1ccc(-c2nc(-c3cccc4c3CC[C@@H]4NCC(=O)N(C)C)no2)cc1C#N [Compound 91, (S)-2-(4-(5-(3-cyano-4-isopropoxyphenyl)-1,2,4-oxadiazol-3-yl)-2,3-dihydro-1H-inden-1-ylamino)-N,N-dimethylacetamide] | 0.30 | 1408 | 7.82 | 10.05 | 9.30 to 10.30
5 | CC(C)Oc1ccc(-c2nc(-c3cccc4c3CC[C@@H]4N)no2)cc1C#N [Compound 50, (S)-5-(3-(1-amino-2,3-dihydro-1H-inden-4-yl)-1,2,4-oxadiazol-5-yl)-2-isopropoxy-benzonitrile] | 0.10 | 1632 | 7.35 | 9.72 | 9.30 to 10.30

— patent US9388147B2 (Receptos, Inc., priority 2009, dated 2016)
